Where a name gives a salt, the structure may show the parent alone.

Broadly, the melting point is the temperature, or range, at which the solid turns liquid. As for `CCC1=C(C(=O)NCCCN2CCC(c3ccccc3)(c3ccccc3)CC2)C(c2ccc([N+](=O)[O-])cc2)C(C(=O)OCc2ccccc2)=C(C)N1` (stereo not drawn) (as salt: hydrochloride) (hydrate or solvate) [Example 4, 5-Benzyloxycarbonyl-2-ethyl-1,4-dihydro-6-methyl-4-(4-nitrophenyl)-3-(N-(3-(4,4-diphenylpiperidin-1-yl)propyl)carboxamido) pyridine, Hydrochloride Salt, Hydrate], the melting point was 195 to 198 °C (dec.).
With `COC(=O)C1=C(C)NC(C)=C(C(=O)N(C)CCCN2CCC(c3ccccc3)(c3ccccc3)CC2)C1c1ccc([N+](=O)[O-])cc1` (stereo not drawn) (as salt: hydrochloride) (hydrate or solvate) [Example 46, hydrochloride hemihydrate] the figure was 179 to 180 °C; with `CC(=O)C1=C(C)NC(C)=C(C(=O)NCCCN2CCC(c3ccccc3)(c3ccccc3)CC2)C1c1ccc([N+](=O)[O-])cc1` (stereo not drawn) (as salt: hydrochloride) (hydrate or solvate) [Example 47, 5-Acetyl-1,4-dihydro-2,6-dimethyl-4-(4-nitrophenyl)-3-{N-[3-(4,4-diphenylpiperidin-1-yl)propyl]}carboxamidopyridine], 173 to 174 °C.
Compound `COC(=O)C1=C(C)NC(C)=C(C(=O)OCCCN2CCC(c3ccccc3)CC2)C1c1ccc([N+](=O)[O-])cc1` (stereo not drawn) (as salt: hydrochloride) (hydrate or solvate) [Example 48, 1,4-Dihydro-5-methazycarbonyl-2,6-dimethyl-4-(4-nitrophenyl)-3-[3-(4-phenylpiperidin-1-yl)propoxy]}carbonylpyridine hydrochloride hydrate] had a melting point of 139 to 140 °C.
The value for `COC(=O)C1=C(C)NC(C)=C(C(=O)OCCCN2CCCCC2)C1c1ccc([N+](=O)[O-])cc1` (stereo not drawn) (as salt: hydrochloride) (hydrate or solvate) [Example 50, 1,4-Dihydro-5-methoxycarbonyl-2,6-dimethyl-4-(4-nitrophenyl)-3-[3-(piperidin-1-yl)propoxy]carbonylpyridine hydrochloride etherate] was 128 to 129 °C; that for `COC(=O)C1=C(C)NC(C)=C(C(=O)NCCCN2CCCCC2)C1c1ccc([N+](=O)[O-])cc1` (stereo not drawn) (as salt: hydrochloride) (hydrate or solvate) [Example 51, 1,4-Dihydro-3-methoxycarbonyl-2,6-dimethyl-4-(4-nitrophenyl)-5-{N-[3-(piperidin-1-yl)propyl]}carboxamidopyridine hydrochloride etherate] was 150 to 150.5 °C.
`COC(=O)C1=C(C)NC(C)=C(C(=O)NCCN2CCC(c3ccccc3)(c3ccccc3)CC2)C1c1ccc([N+](=O)[O-])cc1` (stereo not drawn) (as salt: hydrochloride) (hydrate or solvate) [Example 52, 1,4-Dihydro-3-methoxycarbonyl-2,6-dimethyl-4-(4-nitrophenyl)-5-{N-[2-(4,4-diphenylpiperidin-1-yl)ethyl]}carboxamidopyridine hydrochloride hemihydrate]: the melting point was 170 to 171 °C.
`CC1=C(C(N)=O)C(c2ccc([N+](=O)[O-])cc2)C(C(=O)NCCN2CCC(c3ccccc3)(c3ccccc3)CC2)=C(C)N1` (stereo not drawn) (as salt: hydrochloride) (hydrate or solvate) [Example 54, 5-Carboxamide-1,4-dihydro-2,6-dimethyl-4-(4-nitrophenyl)-3-{N-[2-(4,4-diphenylpiperidin-1-yl)ethyl]}carboxamidopyridine hydrochloride hydrate] showed a melting point of 193 to 194 °C.
`COC(=O)C1=C(C)NC(C)=C(C(=O)NCCCN2CCc3cc(OC)c(OC)cc3C2)C1c1ccc([N+](=O)[O-])cc1` (stereo not drawn) (as salt: hydrochloride) (hydrate or solvate) [Example 57, 1,4-Dihydro-3-methoxycarbonyl-5-{N-[3-(1,2,3,4-tetrahydro-6,7-dimethoxyisoquinolin-2-yl)propyl]}carboxamido-2,6-dimethyl-4-(4-nitrophenyl)pyridine hydrochloride hydrate] yielded a melting point of 161 to 162 °C.
For `COC(=O)C1=C(C)NC(C)=C(C(=O)NCCCN2CCc3ccccc3C2)C1c1ccc([N+](=O)[O-])cc1` (stereo not drawn) (as salt: hydrochloride) (hydrate or solvate) [Example 59, 1,4-Dihydro-5-{N-[3-(1,2,3,4-tetrahydroisoquinolin-2-yl)propyl]}carboxamido-3-methoxycarbonyl-2,6-dimethyl-4-(4-nitrophenyl)pyridine hydrochloride hydrate], the melting point lay in the range of 145 to 146 °C.
The value for `COC(=O)C1=C(C)NC(c2ccoc2)=C(C(=O)NCCCN2CCC(c3ccccc3)CC2)C1c1ccc([N+](=O)[O-])cc1` (stereo not drawn) (as salt: hydrochloride) (hydrate or solvate) [Example 65, 2-(Furan-3-yl)-1,4-dihydro-5-methoxycarbonyl-6-methyl-4-(4-nitrophenyl)-5-{N-[3-(4-phenylpiperidin-1-yl)propyl]}carboxamidopyridine hydrochloride hydrate] was 205 to 210 °C (dec.).
With `CCC1=C(C(=O)NCCCN2CCC(c3ccccc3)CC2)C(c2ccc([N+](=O)[O-])cc2)C(C(=O)OC)=C(C)N1` (stereo not drawn) (as salt: hydrochloride) (hydrate or solvate) [Example 74, 2-Ethyl-1,4-dihydro-5-methoxycarbonyl-6-methyl-4-(4-nitro)phenyl-3-(N-(3-(4-phenylpiperidin-1-yl)propyl)) carboxamidopyridine hydrochloride hydrate] the figure was 209 to 214 °C (dec.).
As to `COC(=O)C1=C(C)NC(c2ccccc2)=C(C(=O)NCCCN2CCC(c3ccccc3)(c3ccccc3)CC2)C1c1ccc([N+](=O)[O-])cc1` (stereo not drawn) (as salt: hydrochloride) (hydrate or solvate) [Example 78, 1,4-Dihydro-5-methoxycarbonyl-6-methyl-4-(4-nitro)phenyl-2-phenyl-3-(N-(3-(4,4-diphenylpiperidin-1-yl)propyl))carboxamidopyridine hydrochloride hydrate], the melting point was 210 to 215 °C (dec.).
Turning to `CCC1=C(C(N)=O)C(c2ccc([N+](=O)[O-])cc2)C(C(=O)NCCCN2CCC(O)(c3ccccc3)CC2)=C(CC)N1` (stereo not drawn) (as salt: hydrochloride) (hydrate or solvate) [Example 100, 5-Carboxamido-2,6-diethyl-1,4-dihydro-3-{N-(3-(4-hydroxy-4-phenylpiperidin-1-yl)propyl]}carboxamido-4-(4-nitrophenyl)pyridine hydrochloride hydrate], the melting point is 165 °C (dec.).
With `CCC1=C(C(N)=O)C(c2ccc([N+](=O)[O-])cc2)C(C(=O)NCCCN2CCN(c3ccccc3)CC2)=C(CC)N1` (stereo not drawn) (as salt: hydrochloride) (hydrate or solvate) [Example 104, 5-Carboxamido-2,6-diethyl-1,4-dihydro-4-(4-nitrophenyl)-3-{N-[3-(4-phenylpiperazin-1-yl)propyl]}carboxamido-pyridine hydrochloride hydrate] the figure was 160 °C (dec.).

For the origin of these results see patent US6608086B2, “Dihydropyridines and new uses thereof” (Synaptic Pharmaceutical Corporation, priority 1993, dated 2003).
